Laboratory results published in patent US20200270237A1 (priority 2017, published 2020).

Molecular target: Human α2δ-1 Subunit of Cav2.2 Calcium Channel (Homo sapiens, UniProt P54289)
Assay: biochemical
Type: binding
Conditions: not given

Chain of Human α2δ-1 Subunit of Cav2.2 Calcium Channel (P54289 25-1103): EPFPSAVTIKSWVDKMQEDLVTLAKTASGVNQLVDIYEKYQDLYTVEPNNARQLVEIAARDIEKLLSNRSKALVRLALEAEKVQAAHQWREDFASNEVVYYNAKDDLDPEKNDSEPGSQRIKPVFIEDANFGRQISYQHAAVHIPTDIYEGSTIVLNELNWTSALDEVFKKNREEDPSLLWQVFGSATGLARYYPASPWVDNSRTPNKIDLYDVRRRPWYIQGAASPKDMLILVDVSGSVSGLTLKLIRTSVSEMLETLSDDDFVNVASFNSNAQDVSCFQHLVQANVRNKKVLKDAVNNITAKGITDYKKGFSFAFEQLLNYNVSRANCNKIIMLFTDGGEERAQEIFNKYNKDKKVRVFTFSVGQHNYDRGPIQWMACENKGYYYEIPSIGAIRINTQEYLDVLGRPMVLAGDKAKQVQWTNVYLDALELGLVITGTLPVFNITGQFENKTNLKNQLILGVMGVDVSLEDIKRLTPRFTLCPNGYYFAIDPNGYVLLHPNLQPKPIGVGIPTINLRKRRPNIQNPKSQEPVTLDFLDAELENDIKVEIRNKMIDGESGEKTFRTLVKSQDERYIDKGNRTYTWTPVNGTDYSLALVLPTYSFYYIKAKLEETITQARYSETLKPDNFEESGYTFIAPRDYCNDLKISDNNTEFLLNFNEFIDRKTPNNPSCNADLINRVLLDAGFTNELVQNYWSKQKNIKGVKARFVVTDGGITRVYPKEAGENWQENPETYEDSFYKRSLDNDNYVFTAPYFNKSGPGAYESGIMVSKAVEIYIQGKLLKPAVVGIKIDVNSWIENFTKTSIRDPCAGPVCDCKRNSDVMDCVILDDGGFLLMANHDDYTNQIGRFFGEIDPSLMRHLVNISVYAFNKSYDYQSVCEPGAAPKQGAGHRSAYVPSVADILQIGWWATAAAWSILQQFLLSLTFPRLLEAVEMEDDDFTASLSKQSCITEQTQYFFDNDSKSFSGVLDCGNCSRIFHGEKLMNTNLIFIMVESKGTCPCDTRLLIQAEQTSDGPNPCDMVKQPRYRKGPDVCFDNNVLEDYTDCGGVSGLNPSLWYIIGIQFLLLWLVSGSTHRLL

| Structure (SMILES) | Ki [nM] |
| --- | --- |
| CNCCC(Oc1ccc(CN2CCCc3ccccc32)c(F)c1)c1cccs1 (stereo not drawn) [Example 54, 3-(4-((3,4-Dihydroquinolin-1(2H)-yl)methyl)-3-fluorophenoxy)-N-methyl-3-(thiphen-2-yl)propan-1-amine] | > 3000 |
| CNCC[C@H](Oc1cccc(CN2CCC(c3cccc(O)c3)(N(C)C)CC2)c1)c1cccs1 [Example 14, (S)-3-(4-(dimethylamino)-1-(3-(3-(methylamino)-1-(thiophen-2-yl)propoxy)benzyl)piperidin-4-yl)phenol] | 100 to 500 |
| CNCCC(Oc1cccc(N2C[C@@H](C)N[C@@H](C)C2)c1)c1cccs1 (stereo partly drawn) [Example 44, 3-(3-((3S,5R)-3,5-dimethylpiperazin-1-yl)phenoxy)-N-methyl-3-(thiophen-2-yl)propan-1-amine] | 100 to 500 |
| CNCC[C@H](Oc1cccc(CN2CCC(c3ccccc3)(N(C)C)CC2)c1)c1cccs1 [Example 15, (S)-N,N-dimethyl-1-(3-(3-(methylamino)-1-(thiophen-2-yl)propoxy)benzyl)-4-phenylpiperidin-4-amine] | 500 to 3000 |
| CNCCC(Oc1cccc(CN2CCC(c3cccc(O)c3)CC2)c1)c1cccs1 (stereo not drawn) [Example 3, 3-(1-(3-(3-(Methylamino)-1-(thiophen-2-yl)propoxy)benzyl)piperidin-4-yl)phenol] | 100 to 500 |
| CNCC[C@@H](OCc1cccc(CN2CCC(c3cccc(O)c3)(N(C)C)CC2)c1)c1cccs1 [Example 24, (R)-3-(4-(dimethylamino)-1-(3-((3-(methylamino)-1-(thiophen-2-yl)propoxy)methyl)benzyl)piperidin-4-yl)phenol] | 500 to 3000 |
| CNCCC(Oc1ccc(CCN2CCC(c3ccccc3)(N(C)C)CC2)cc1)c1cccs1 (stereo not drawn) [Example 57, N,N-dimethyl-1-(4-(3-(methylamino)-1-(thiophen-2-yl)propoxy)phenethyl)-4-phenylpiperidin-4-amine] | > 3000 |
| CNCC[C@@H](Oc1cccc(CN2CCC(c3ccccc3)(N(C)C)CC2)c1)c1cccs1 [Example 16, (R)-N,N-dimethyl-1-(3-(3-(methylamino)-1-(thiophen-2-yl)propoxy)benzyl)-4-phenylpiperidin-4-amine] | 500 to 3000 |
| CNCCC(Oc1ccc(CN2CCc3ccccc3C2)c(F)c1)c1cccs1 (stereo not drawn) [Example 55, 3-(4-((3,4-Dihydroisoquinolin-2(1H)-yl)methyl)-3-fluorophenoxy)-N-methyl-3-(thiophen-2-yl)propan-1-amine] | > 3000 |
| CNCCC(Oc1cccc(CN2CCC(c3cccc(O)c3)(N(C)C)CC2)c1)c1cccs1 (stereo not drawn) [Example 5, 3-(4-(Dimethylamino)-1-(3-(3-(methylamino)-1-(thiophen-2-yl)propoxy)benzyl)piperidin-4-yl)phenol] | 100 to 500 |

Same assay, conditions: Table 1; human α2δ-1 enriched membranes, 15 nM [3H]-Gabapentin; read-out: Ki (nM) alpha2delta Hum

| Structure (SMILES) | Ki [nM] |
| --- | --- |
| CNCCC(Oc1cccc(C(=O)N2CCC(c3ccccc3)(N(C)C)CC2)c1)c1cccs1 (stereo not drawn) [Example 7, (4-(Dimethylamino)-4-phenylpiperidin-1-yl)(3-(3-(methylamino)-1-(thiophen-2-yl)propoxy)phenyl)methanone] | 500 to 3000 |
| CNCCC(OCc1cccc(CN2CCC(c3ccccc3)(N(C)C)CC2)c1)c1cccs1 (stereo not drawn) [Example 20, N,N-dimethyl-1-(3-((3-(methylamino)-1-(thiophen-2-yl)propoxy)methyl)benzyl)-4-phenylpiperidin-4-amine] | 500 to 3000 |
| CNCC[C@H](OCc1cccc(CN2CCC(c3ccccc3)(N(C)C)CC2)c1)c1cccs1 [Example 21, (S)-N,N-dimethyl-1-(3-((3-(methylamino)-1-(thiophen-2-yl)propoxy)methyl)benzyl)-4-phenylpiperidin-4-amine] | > 3000 |
| CNCCC(Oc1cccc(N2CCC(c3ccccc3)(N(C)C)CC2)c1)c1cccs1 (stereo not drawn) [Example 43, N,N-dimethyl-1-(3-(3-(methylamino)-1-(thiophen-2-yl)propoxy)phenyl)-4-phenylpiperidin-4-amine] | 500 to 3000 |

Same assay, conditions: Table 2 (dual compounds); human α2δ-1 enriched membranes, 15 nM [3H]-Gabapentin; read-out: Ki (nM) alpha2delta Hum

| Structure (SMILES) | Ki [nM] |
| --- | --- |
| CNCCC(Oc1cccc(C(=O)N2CCC(c3ccccc3)(N(C)C)CC2)c1)c1cccs1 (stereo not drawn) [Example 7, (4-(Dimethylamino)-4-phenylpiperidin-1-yl)(3-(3-(methylamino)-1-(thiophen-2-yl)propoxy)phenyl)methanone] | 500 to 3000 |
| CNCCC(OCc1cccc(CN2CCC(c3ccccc3)(N(C)C)CC2)c1)c1cccs1 (stereo not drawn) [Example 20, N,N-dimethyl-1-(3-((3-(methylamino)-1-(thiophen-2-yl)propoxy)methyl)benzyl)-4-phenylpiperidin-4-amine] | 500 to 3000 |
| CNCC[C@H](OCc1cccc(CN2CCC(c3ccccc3)(N(C)C)CC2)c1)c1cccs1 [Example 21, (S)-N,N-dimethyl-1-(3-((3-(methylamino)-1-(thiophen-2-yl)propoxy)methyl)benzyl)-4-phenylpiperidin-4-amine] | > 3000 |
| CNCCC(Oc1cccc(N2CCC(c3ccccc3)(N(C)C)CC2)c1)c1cccs1 (stereo not drawn) [Example 43, N,N-dimethyl-1-(3-(3-(methylamino)-1-(thiophen-2-yl)propoxy)phenyl)-4-phenylpiperidin-4-amine] | 500 to 3000 |

Same assay, conditions: read-out: Ki (nM) alpha2delta Hum

| Structure (SMILES) | Ki [nM] |
| --- | --- |
| CC[C@]1(N2CCN(Cc3cccc(CO[C@H](CCNC)c4ccccc4)c3)CC2)CCOC(C)(C)C1 [Example 31, (R)-3-((3-((4-((S)-4-ethyl-2,2-dimethyltetrahydro-2H-pyran-4-yl)piperazin-1-yl)methyl)benzyl)oxy)-N-methyl-3-phenylpropan-1-amine] | 500 to 3000 |
| CNCC[C@@H](OCc1cccc(CN2CCN([C@]3(C(=O)c4ccccn4)CCOC(C)(C)C3)CC2)c1)c1ccccc1 [Example 29, ((R)-2,2-dimethyl-4-(4-(3-(((R)-3-(methylamino)-1-phenylpropoxy)methyl)benzyl)piperazin-1-yl)tetrahydro-2H-pyran-4-yl)(pyridin-2-yl)methanone] | 500 to 3000 |
| CNCC[C@@H](OCc1cccc(CN2CCN([C@@]3(C(=O)c4ccccn4)CCOC(C)(C)C3)CC2)c1)c1ccccc1 [Example 28, ((S)-2,2-dimethyl-4-(4-(3-(((R)-3-(methylamino)-1-phenylpropoxy)methyl)benzyl)piperazin-1-yl)tetrahydro-2H-pyran-4-yl)(pyridin-2-yl)methanone] | 500 to 3000 |

More lines, now with the values ahead:

| Ki [nM] | Structure (SMILES) |
| --- | --- |
| 500 to 3000 | CNCCC(OCc1cccc(N2CCCCC2=O)c1)c1cccs1 (stereo not drawn) [Example 39, 1-(3-((3-(Methylamino)-1-(thiophen-2-yl)propoxy)methyl)phenyl)piperidin-2-one] |
| > 3000 | CNCCC(Oc1cccc(C(=O)N2CCOCC2)c1)c1ccccc1 (stereo not drawn) [Example 10, (3-(3-(Methylamino)-1-phenylpropoxy)phenyl)(morpholino)methanone] |
| 500 to 3000 | CNCCC(Oc1cccc(N2CCNCC2)c1)c1cccs1 (stereo not drawn) [Example 42, N-methyl-3-(3-(piperazin-1-yl)phenoxy)-3-(thiophen-2-yl)propan-1-amine] |
| > 3000 | CC[C@@]1(N2CCN(Cc3cccc(CO[C@H](CCNC)c4ccccc4)c3)CC2)CCOC(C)(C)C1 [Example 30, (R)-3-((3-((4-((R)-4-ethyl-2,2-dimethyltetrahydro-2H-pyran-4-yl)piperazin-1-yl)methyl)benzyl)oxy)-N-methyl-3-phenylpropan-1-amine] |
| 500 to 3000 | CNCC[C@H](Oc1ccc(CN2CCc3ccccc3C2=O)cc1)c1cccs1 [Example 50, (S)-(4-(3-(methylamino)-1-(thiophen-2-yl)propoxy)benzyl)-3,4-dihydroisoquinolin-1(2H)-one] |
| > 3000 | CNCCC(OCc1ccc(N2CCC(c3ccccc3)(N(C)C)CC2)cc1)c1cccs1 (stereo not drawn) [Example 49, N,N-dimethyl-1-(4-((3-(methylamino)-1-(thiophen-2-yl)propoxy)methyl)phenyl)-4-phenylpiperidin-4-amine] |
| > 3000 | CNCCC(Oc1cccc(N2CCN(C)CC2=O)c1)c1cccs1 (stereo not drawn) [Example 36, 4-Methyl-1-(3-(3-(methylamino)-1-(thiophen-2-yl)propoxy)phenyl)piperazin-2-one] |
| > 3000 | CNCCC(Oc1cccc(N2CCCCC2=O)c1)c1cccs1 (stereo not drawn) [Example 34, 1-(3-(3-(Methylamino)-1-(thiophen-2-yl)propoxy)phenyl)piperidin-2-one] |
| 500 to 3000 | CNCCC(Oc1cccc(N2CCN(C)CC2)c1)c1cccs1 (stereo not drawn) [Example 37, N-methyl-3-(3-(4-methylpiperazin-1-yl)phenoxy)-3-(thiophen-2-yl)propan-1-amine] |
| > 3000 | CNCCC(Oc1cccc(N2CCCCC2=O)c1)c1ccccc1 (stereo not drawn) [Example 33, 1-(3-(3-(Methylamino)-1-phenylpropoxy)phenyl)piperidin-2-one] |
| > 3000 | CNCCC(OCc1cccc(N2CCN(C)CC2=O)c1)c1ccccc1 (stereo not drawn) [Example 41, 4-Methyl-1-(3-((3-(methylamino)-1-phenylpropoxy)methyl)phenyl)piperazin-2-one] |
| 500 to 3000 | CNCCC(Oc1cccc(CN2C[C@@H](C)N[C@@H](C)C2)c1)c1cccs1 (stereo partly drawn) [Example 1, 3-(3-((3,5-Dimethylpiperazin-1-yl)methyl)phenoxy)-N-methyl-3-(thiophen-2-yl)propan-1-amine] |
| 500 to 3000 | CNCCC(Oc1cccc(CN2CCNCC2)c1)c1cccs1 (stereo not drawn) [Example 6, N-methyl-3-(3-(piperazin-1-ylmethyl)phenoxy)-3-(thiophen-2-yl)propan-1-amine] |
| > 3000 | CNCCC(Oc1ccc(C(=O)N2CCC(c3ccccc3)(N(C)C)CC2)cc1)c1cccs1 (stereo not drawn) [Example 56, (4-(Dimethylamino)-4-phenylpiperidin-1-yl)(4-(3-(methylamino)-1-(thiophen-2-yl)propoxy)phenyl)methanone] |
| 500 to 3000 | CNCCC(OCc1cccc(N2CCC(N(C)C)CC2)c1)c1ccccc1 (stereo not drawn) [Example 48, N,N-dimethyl-1-(3-((3-(methylamino)-1-phenylpropoxy)methyl)phenyl)piperidin-4-amine] |
| 500 to 3000 | CNCCC(OCc1cccc(N2CCN(C)CC2)c1)c1ccccc1 (stereo not drawn) [Example 40, N-methyl-3-((3-(4-methylpiperazin-1-yl)benzyl)oxy)-3-phenylpropan-1-amine] |
| 500 to 3000 | CNCC[C@H](Oc1ccc(CN2CCn3cccc3C2=O)cc1)c1cccs1 [Example 53, (S)-2-(4-(3-(methylamino)-1-(thiophen-2-yl)propoxy)benzyl)-3,4-dihydropyrrolo[1,2-a]pyrazin-1(2H)-one] |
| 500 to 3000 | CC[C@@]1(N2CCN(CCc3cccc(O[C@H](CCNC)c4ccccc4)c3)CC2)CCOC(C)(C)C1 [Example 12b, (R)-3-(3-(2-(4-((R)-4-ethyl-2,2-dimethyltetrahydro-2H-pyran-4-yl)piperazin-1-yl)ethyl)phenoxy)-N-methyl-3-phenylpropan-1-amine] |
| 500 to 3000 | CNCCC(Oc1cccc(N2CCN(C)CC2)c1)c1ccccc1 (stereo not drawn) [Example 35, N-methyl-3-(3-(4-methylpiperazin-1-yl)phenoxy)-3-phenylpropan-1-amine] |
| > 3000 | CNCCC(Oc1cccc(-n2nc(C)cc2C)c1)c1ccccc1 (stereo not drawn) [Example 13] |
| > 3000 | CNCC[C@H](Oc1cccc(CN2CCN([C@]3(C(=O)c4ccccn4)CCOC(C)(C)C3)CC2)c1)c1cccs1 [Example 18, ((R)-2,2-dimethyl-4-(4-(3-((S)-3-(methylamino)-1-(thiophen-2-yl)propoxy)benzyl)piperazin-1-yl)tetrahyrdro-2H-pyran-4-yl)(pyridin-2-yl)methanone] |
